Common to all, as to format: in vivo
Test [1] deals with APP/PS1 mice. As to the kind of experiment: Aβ immunohistochemistry, Aβ burden in neocortex. Particulars: 5 mg/kg/day i.p. for 4 weeks, compared to vehicle-treated animals. The method, then:
(§1) Animals and treatment: The experiments were carried out on male APP/PS1 mice, which express the human mutated forms APPswe and PS1dE9, and wild-type (WT) littermates which were 5 month-old at the beginning of the study. In the present work, identification of transgenic mice was carried out as follows: genomic DNA was isolated from 1-cm tail clips and genotyped by polymerase chain reaction (PCR) technique using the PCR conditions proposed by Jackson Laboratory. Animals were maintained under standard animal housing conditions in a normal 12-h dark-light cycle with free access to food and water. The sample size for experimentation was computed using the Power and Precision software (Biostat, Englewood, NJ, USA), assuming a power of 95% and no missing data. Animal procedures were conducted according to ethical guidelines (European Community Council Directive 86/609/EEC) and approved by the local ethical committee (UB-IDIBELL). The compounds (5 mg/kg) were dissolved in 1% DMSO and 99% saline, and were injected intraperitoneally (i.p.) in a volume of 10 mL/kg body weight. Animals were treated once daily for 4 weeks with (αS,7R,11R)-(Ia), (αS,7S,11S)-(Ia), (±)-(Ib), (±)-(Ic) or the corresponding vehicle (VEH) (wild-type, n = 6; APP/PS1, n = 6, each group). After 2 days of washing period, animals were subjected to behavioral evaluation.
Tissue Collection: At the end of the behavioral testing, the animals were sacrificed and their brains were removed. One brain hemisphere was dissected on ice, immediately frozen and stored at -80 °C until processing for protein or RNA quantification. The other brain hemisphere was fixed in 4% paraformaldehyde and processed for immunohistochemistry.
Aβ immunohistochemistry: Tissue samples were embedded in paraffin and coronal sections (4 µm) were cut with a microtome. […] No immunostaining was detected in these sections. […] The Aβ burden in neocortex was calculated as the percentage of the Aβ deposition area with respect to the total area in 9 representative pictures, corresponding to the main regions where Aβ deposition is observed in APP/PS1 mice. Sections from all the APP/PS1 animals were evaluated by using the Analysis tool of the software Adobe® Photoshop® CS4.
(§2) Densitometric quantification of glia around Aβ plaques: Astrocytic and microglial responses to Aβ deposition were evaluated by densitometric quantification of GFAP and Iba1 protein expression levels around Aβ plaques, respectively. […] Statistical analysis: Data were analyzed by two-way ANOVA with genotype and treatment or age as between factors, followed by Tukey's post hoc test when required. Aβ and glia quantifications were analyzed by one-way ANOVA followed by Tukey's post hoc test when required.

Test [2] concerns APP/PS1 mice. As to the kind of experiment: two-object recognition test (V-maze), cognitive performance. Particulars: male APP/PS1 mice, 5 month-old, 5 mg/kg i.p. once daily for 4 weeks, FIG 1; for memory impairment in the two-object recognition test: tested after 2 days of washing period, 5 mg/kg. As to the method: as §1, with “The compounds (5 mg/kg) were dissolved in 1% DMSO and 99% saline, and were injected intraperitoneally (i.p.) in a volume of 10 mL/kg body weight. Animals were treated once daily for 4 weeks with (αS,7R,11R)-(Ia), (αS,7S,11S)-(Ia), (±)-(Ib), (±)-(Ic) or the corresponding vehicle (VEH) (wild-type, n = 6; APP/PS1, n = 6, each group). After 2 days of washing period, animals were subjected to behavioral evaluation.” left out
Behavioral evaluation of cognitive performance: The two-object recognition test was performed. […] On the second day, mice were placed for 9 min in the maze, where two identical objects were situated at the end of the arms, and the time that the mice spent exploring each object was recorded. […] The time that the animals spent exploring the two objects was recorded and an object recognition index was calculated as the difference between the time spent exploring the novel and the familiar object, divided by the total time spent exploring the two objects.
as §2

In test [3] the test system is APP/PS1 mice. As to the kind of experiment: glial (GFAP) and Aβ double-immunofluorescence, astrocytes around Aβ plaques. Particulars: 5 mg/kg i.p. once daily for 4 weeks, FIG 3. The method, then: as §1, with “The compounds (5 mg/kg) were dissolved in 1% DMSO and 99% saline, and were injected intraperitoneally (i.p.) in a volume of 10 mL/kg body weight. Animals were treated once daily for 4 weeks with (αS,7R,11R)-(Ia), (αS,7S,11S)-(Ia), (±)-(Ib), (±)-(Ic) or the corresponding vehicle (VEH) (wild-type, n = 6; APP/PS1, n = 6, each group). After 2 days of washing period, animals were subjected to behavioral evaluation.” left out
(§3) Tissue Collection: At the end of the behavioral testing, the animals were sacrificed and their brains were removed. One brain hemisphere was dissected on ice, immediately frozen and stored at -80 °C until processing for protein or RNA quantification. […]
(§4) Glial and Aβ double-immunofluorescence: De-waxed sections were stained with a saturated solution of Sudan black B (Merck) for 30 min to block the autofluorescence of lipofuscin granules present in cell bodies, then rinsed in 70% ethanol and washed in distilled water. […] After washing, the sections were incubated with Alexa488 or Alexa546 (1:400, Molecular Probes) fluorescence secondary antibodies against the corresponding host species. […]
Densitometric quantification of glia around Aβ plaques: Astrocytic and microglial responses to Aβ deposition were evaluated by densitometric quantification of GFAP and Iba1 protein expression levels around Aβ plaques, respectively. […] Statistical analysis: Data were analyzed by two-way ANOVA with genotype and treatment or age as between factors, followed by Tukey's post hoc test when required. […]

Test [4] deals with APP/PS1 mice. Nature of the test: glial (Iba1) and Aβ double-immunofluorescence, microglia around Aβ plaques. Particulars: 5 mg/kg i.p. once daily for 4 weeks, compared to vehicle-treated APP/PS1 animals, FIG 4. The method, then:
Animals and treatment: The experiments were carried out on male APP/PS1 mice, which express the human mutated forms APPswe and PS1dE9, and wild-type (WT) littermates which were 5 month-old at the beginning of the study. In the present work, identification of transgenic mice was carried out as follows: genomic DNA was isolated from 1-cm tail clips and genotyped by polymerase chain reaction (PCR) technique using the PCR conditions proposed by Jackson Laboratory. Animals were maintained under standard animal housing conditions in a normal 12-h dark-light cycle with free access to food and water. […]
as §3, §4

“Also recorded” adds a separate entry of the source.

Regarding `CCC(C(=O)NCCCCCCCNc1c2c(nc3ccccc13)CCCC2)N1CCCC1=O` (racemic) [(±)-(Ic), (±)-N-{7-[(1,2,3,4-tetrahydroacridin-9-yl)amino]heptyl}-2-(2-oxopyrrolidin-1-yl)butanamide], in the test with APP/PS1 mice [1] (FIG 2), the “Aβ burden in the cortex” value was “tends to reduce”. For the same compound, the recognition index entry in the test with APP/PS1 mice [2] (compared to vehicle-treated animals) was “significantly increased”. Moreover, the “memory impairment in the two-object recognition test” value in the test with APP/PS1 mice [2] was “did not exhibit memory impairment; also recorded: reverse the memory impairment”.
Consider `CC[C@@H](C(=O)NCCCCCCCNc1c2c(nc3cc(Cl)ccc13)C[C@@H]1C=C(C)C[C@H]2C1)N1CCCC1=O` [(αS,7R,11R)-(Ia), (+)-(αS,7R,11R)-N-{7-[(3-chloro-6,7,10,11-tetrahydro-9-methyl-7,11-methanocycloocta[b]quinolin-12-yl)amino]heptyl}-2-(2-oxopyrrolidin-1-yl)butanamide], for which the “number of astrocytes around Aβ plaques (GFAP/Aβ)” value (shortened to “number … (GFAP/Aβ)”) in the test with APP/PS1 mice [3] is listed as “produced a tendency to reduce”. Further, the “Aβ burden in the cortex” value in the test with APP/PS1 mice [1] (FIG 2) is “tends to reduce”.
In the case of `CC[C@@H](C(=O)NCCCCCCCNc1c2c(nc3cc(Cl)ccc13)C[C@H]1C=C(C)C[C@@H]2C1)N1CCCC1=O` [(αS,7S,11S)-(Ia), (-)-(αS,7S,11S)-N-{7-[(3-chloro-6,7,10,11-tetrahydro-9-methyl-7,11-methanocycloocta[b]quinolin-12-yl)amino]heptyl}-2-(2-oxopyrrolidin-1-yl)butanamide], in the test with APP/PS1 mice [3], the “number … (GFAP/Aβ)” value was “produced a tendency to reduce”. Also, the “Aβ burden in the cortex” value in the test with APP/PS1 mice [1] (FIG 2, 5 mg/kg/day) is “tends to reduce; also recorded: reduction in the cortical Aβ plaques deposition”. Moreover, the “memory impairment in the two-object recognition test” value in the test on APP/PS1 mice [2] is “did not exhibit memory impairment; also recorded: reverse the memory impairment”. In the test on APP/PS1 mice [4], the “number of microglial cells associated with Aβ plaques (Iba1/Aβ)” value is “decreased microglial reaction”.
In the case of `CCC(C(=O)NCCCCCCCNc1c2c(nc3cc(Cl)ccc13)CCCC2)N1CCCC1=O` (racemic) [(±)-(Ib), (±)-N-{7-[(6-chloro-1,2,3,4-tetrahydroacridin-9-yl)amino]heptyl}-2-(2-oxopyrrolidin-1-yl)butanamide], in the test on APP/PS1 mice [3], the “number … (GFAP/Aβ)” value was “produced a tendency to reduce”. Besides, the “Aβ burden in the cortex” value in the test with APP/PS1 mice [1] (FIG 2) was “tends to reduce”.

The record behind these values is patent EP2818467A1, “Multi-target drug compounds for the treatment of neurodegenerative disorders” (Universitat de Barcelona, priority 2013, dated 2014).
